Reference: patent publication US11180481B2, “Oxopiperazine helix mimetics as inhibitors of the p53-MDM2 interaction” (NEW YORK UNIVERSITY, priority 2014, dated 2021)
Read-outs that look alike come from different tables or passages of the source.

Biological target: T1, N-terminal His6-tagged Mdm225-117 (Homo sapiens, UniProt Q00987)
T1 construct: 25-117 fusion protein; made in house; host or cells: E. coli BL21 DE3 pLySS, pET-14B vector
Assay: Fluorescence polarization competitive binding assay with fluorescein labeled p53 peptide (Flu-p53)
Conditions: for fold decrease in binding affinity: relative to 18 (3-chloro-phenylalanine at R1)
Experimental: The relative affinities of peptides for N-terminal His6-tagged Mdm225-117 were determined using fluorescence polarization based competitive binding assay with fluorescein labeled p53 peptide, Flu-p53. The polarization experiments were performed with a DTX 880 Multimode Detector (Beckman) at 25° C., with excitation and emission wavelengths at 485 nm and 535 nm, respectively. All samples were prepared in 96 well plates in 0.1% pluronic F-68 (Sigma).
For competition binding experiments, a solution of 250 nM Mdm2 and 15 nM Flu-p53 in buffer (10 mM PBS pH 7.4, 5 mM EDTA, 0.5 mM DTT, 0.1% pluronic F-68) was incubated at 25° C. in a 96 well plate. After 30 minutes, appropriate concentrations of the oxopiperazine (1 nM-100 μM) were added to the Mdm2-Flu-p53 mixture and the resulting mixtures were incubated at 25° C. for 1 hour before measuring the degree of dissociation of Flu-p53 by polarization. The EC50 was fit into equation (2) to calculate the Ki value of the oxopiperazine. Ki=KD1*FSB*((LT/(LST*FSB2−(KD1+LST+RT)*FSB+RT))−1(1−FSB)) (2)
where: • KD=KD of fluorescent probe Flu-p53 • RT=Total concentration of Mdm2 protein • LST=total concentration of p53 fluorescent peptide • FSB=Fraction of bound […] (at EC50) • LT=total concentration of oxopiperazine (EC50)
The binding affinity (KD) values reported for each peptide are the averages of 3-5 individual experiments, and were determined by fitting the experimental data to a sigmoidal dose-response nonlinear regression model on GraphPad Prism 5.0 (Roehrl et al., Biochemistry 43:16056 (2004), which is hereby incorporated by reference in its entirety).
A previously-described fluorescence polarization competition assay with a fluorescein-labeled p53 peptide was utilized to probe the binding affinity of the mimetics (Henchey et al., ChemBiochem 11:2104 (2010); Knight et al., Anal. Biochem. 300:230 (2002), each of which is hereby incorporated by reference in its entirety). […] To examine the effect of the R3 position on the binding properties, a series of compounds was designed in which this position was changed to hydrophobic, anionic, or cationic residues. These studies were performed in the context of the dimers (1-4) as well as oxopiperazine monomers linked to uncyclized dipeptides (see Table 4, supra). […] Importantly, comparisons of dimers 3 (FWLL) and 4 (FWFL) with the monomer-dipeptide sequences 11 and 12 support the hypothesis that cyclization of dipeptides in oxopiperazine rings provides a significant boost to the ability of these helix mimetics to target protein pockets Ramachandran Plots (Ramachandran & Sasisekharan, Adv. Protein Chem. 23:283 (1968), which is hereby incorporated by reference in its entirety) obtained from quantum mechanical calculations further illustrate the flexibility of the uncyclized derivative (FIGS. 9C-D) as compared to the cyclic dimer (FIGS. 9A-B).

[1] = Table 5, restated by sequence, read-out: Experimental Kd
[2] = Table 6, computationally predicted dimers, competitive fluorescence polarization assay, read-out: Kd (μM), binding affinity for Mdm2
[3] = Table 3, oxopiperazine dimers, competitive fluorescence polarization assay, read-out: Kd (μM), binding affinity for Mdm2

## CCCC[C@@H](C(N)=O)N1CCN(C(=O)[C@H](Cc2c[nH]c3ccccc23)N2CCN[C@@H](Cc3ccccc3)C2=O)[C@@H](Cc2ccccc2)C1=O [Mimetic 13, FWF(Nle)-NH2]
[1]
  Kd: 2.46 µM

## CC(C)C[C@@H](C(N)=O)N1CCN(C(=O)[C@H](Cc2c[nH]c3ccccc23)N2CCN[C@@H](Cc3ccc(Cl)cc3)C2=O)[C@@H](Cc2ccccc2)C1=O [Mimetic 20, F(4-Cl)WFL-NH2]
[2]
  Kd: 1.29 ± 0.06 µM
  fold decrease in binding affinity: 4 fold

## CC(C)C[C@@H](C(=O)O)N1CCN(C(=O)[C@H](Cc2c[nH]c3ccccc23)N2CCN[C@@H](Cc3ccccc3)C2=O)[C@@H](C)C1=O [Mimetic 1, FWAL-OH]
[3]
  Kd: 65.4 ± 0.28 µM
Oxopiperazine trimers, method not stated, read-out: Kd2
  Kd: 3.1 ± 2.4 µM
read-out: dissociation constant, Kd
  Kd: 65 µM

## COc1ccc(C[C@@H]2NCCN([C@@H](Cc3c[nH]c4ccccc34)C(=O)N3CCN([C@@H](CC(C)C)C(N)=O)C(=O)[C@@H]3Cc3ccccc3)C2=O)cc1 [Mimetic 17, Y(O—Me)WFL-NH2]
  binding to Mdm2, in words: slightly better than 16
[2]
  Kd: 0.32 ± 0.01 µM

## CC(C)C[C@@H](C(N)=O)N1CCN(C(=O)[C@H](Cc2c[nH]c3ccccc23)N2CCN[C@@H](Cc3ccc(O)cc3)C2=O)[C@@H](Cc2ccccc2)C1=O [Mimetic 16, YWFL-NH2]
[1]
  Kd: 0.4 µM
read-out: ligand for Mdm2 (affinity)
  Kd: 0.4 µM

## CC(C)C[C@@H](C(N)=O)N1CCN(C(=O)[C@H](Cc2c[nH]c3ccccc23)N2CCN[C@@H](Cc3cccc(Cl)c3)C2=O)[C@@H](Cc2ccccc2)C1=O [Mimetic 18, F(3-Cl)WFL-NH2]
  binding to Mdm2, in words: slightly better than 16
[1]
  Kd: 0.33 µM

## CC(C)C[C@@H](C(N)=O)N1CCN(C(=O)[C@H](Cc2c[nH]c3ccccc23)N2CCN[C@@H](Cc3ccccc3)C2=O)[C@@H](Cc2ccccc2)C1=O [Mimetic 5, FWFL-NH2]
[3]
  Kd: 2.88 ± 0.12 µM

## Cc1cccc(C[C@@H]2NCCN([C@@H](Cc3c[nH]c4ccccc34)C(=O)N3CCN([C@@H](CC(C)C)C(N)=O)C(=O)[C@@H]3Cc3ccccc3)C2=O)c1 [Mimetic 19, F(3-Me)WFL-NH2]
[1]
  Kd: 2.6 µM
  fold decrease in binding affinity: 8 fold

## CC(C)C[C@@H](C(N)=O)N1CCN(C(=O)[C@H](Cc2c[nH]c3ccccc23)N2CCN[C@@H](Cc3cccc4ccccc34)C2=O)[C@@H](Cc2ccccc2)C1=O [Mimetic 15, (Nap)WFL-NH2]
[1]
  Kd: 0.85 µM
Relative to mimetic 5
  fold higher affinity than 5: three-fold higher affinity

## NCCCC[C@@H](C(N)=O)N1CCN(C(=O)[C@H](Cc2c[nH]c3ccccc23)N2CCN[C@@H](Cc3ccccc3)C2=O)[C@@H](Cc2ccccc2)C1=O [Mimetic 6, FWFK-NH2]
  binding to Mdm2, in words: rather poor binder

## CC(C)C[C@@H](C(N)=O)N1CCN(C(=O)[C@H](C)N2CCN[C@@H](Cc3ccccc3)C2=O)[C@@H](Cc2ccccc2)C1=O [Mimetic 8, FAFL-NH2]
[3]
  Kd: 63.9 ± 6.8 µM

## CC(C)C[C@@H](C(N)=O)N1CCN(C(=O)[C@H](Cc2c[nH]c3ccccc23)N2CCN[C@@H](CCCCN)C2=O)[C@@H](Cc2ccccc2)C1=O [Mimetic 7, KWFL-NH2]
  binding to Mdm2, in words: poor binder

## CC(C)C[C@@H](C(=O)O)N1CCN(C(=O)[C@H](Cc2c[nH]c3ccccc23)N2CCN[C@@H](Cc3ccccc3)C2=O)[C@@H](CCCCN)C1=O [Mimetic 2, FWKL-OH]
  binding to Mdm2, in words: appreciably lower affinity
